Our source for the MIC, Kd and Acute tolerability values is ChEMBL document CHEMBL1145073, “DNA binding ligands targeting drug-resistant bacteria: structure, activity, and pharmacology” (J Med Chem, 2003).

What is called MIC is the lowest concentration found to suppress growth.

The structures appear in SMILES notation. ≈ marks a conversion by molar mass, not a printed value. Some results are limits rather than exact numbers.

The subject of assay [1] is Enterococcus faecalis. Nature of the assay: In vitro antimicrobial activity against vancomycin-susceptible Enterococcus faecalis 29212. The assay is classed as functional.
The test system of assay [2] is Enterococcus faecalis. Description: In vitro antimicrobial activity against vancomycin-resistant Enterococcus faecalis 51559. The assay is classed as functional.
A short description of assay [3]: In vitro antimicrobial activity against penicillin-intermediate Streptococcus pneumoniae 49619. The assay is classed as functional.
Assay [4] addresses Nucleic Acid. Description: Apparent binding affinity against DNA (5'-ACAATTAA-3') was determined using DNase I footprinting titration method. The assay is classed as nucleic-acid assay. The settings on record: read-out: Kd app.
Assay [5] has as its system Mus musculus. Nature of the assay: Acute tolerability of compound in 4 ICR female mice after intravenous administration was determined; no adverse effects. It is filed as functional, organism-based.
For assay [6], the system named is Candida albicans. Description: In vitro antimicrobial activity against Candida albicans 38247. It is filed as functional.
Assay [7] deals with Bacillus cereus. Description: In vitro antimicrobial activity against Bacillus cereus 11778. It is filed as functional.
Assay [8] deals with Staphylococcus aureus. Description: In vitro antimicrobial activity against methicillin resistant Staphylococcus aureus 27660. The assay is classed as functional.
Assay [9] in a line: In vitro antimicrobial activity against penicillin resistant Streptococcus pneumoniae 51422. The assay is classed as functional.
Assay [10] concerns Mus musculus. Description: Acute tolerability of compound in 5 ICR female mice after intravenous administration was determined; Lethality 1/5.
The subject of assay [11] is Enterococcus faecalis. Nature of the assay: In vitro antimicrobial activity against vancomycin-resistant Enterococcus faecalis 51559.
In assay [12] the test system is Mus musculus. Description: Acute tolerability of compound […] female mice after intravenous administration was determined; Lethality 3/5. It is filed as functional, organism-based.
Setting [13] is: Candida albicans, read-out: MIC.

As to `Cn1cc(NC(=O)c2cc(NC(=O)c3cc(-c4sccc4Cl)cn3C)cn2C)cc1C(=O)NCCN1CCOCC1`, the MIC is 1 µg/mL (≈ 1.67 µM) in assay [1]; 1 µg/mL (≈ 1.67 µM) in [2]; 0.125 µg/mL (≈ 0.209 µM) in assay [3]; > 32 µg/mL in assay [6]; 1 µg/mL (≈ 1.67 µM) in assay [7]; 4 µg/mL (≈ 6.69 µM) in assay [8]. The compound further returned an MIC in assay [9] of 0.125 µg/mL (≈ 0.209 µM). In addition, the Kd in assay [4] is 20 nM. Besides, in assay [5], the Acute tolerability entry was “no adverse effects”.
As for `Cn1cc(NC(=O)c2cc(NC(=O)c3cc(NC(=O)c4sccc4Cl)cn3C)cn2C)cc1C(=O)NCCN1CCC(F)CC1`, the MIC in assay [1] was 1 µg/mL (≈ 1.52 µM); in [2], 0.5 µg/mL (≈ 0.761 µM); in [3], 0.031 µg/mL (≈ 0.0472 µM); in assay [6] (setting [13]), > 32 µg/mL; in assay [7], 1 µg/mL (≈ 1.52 µM); in assay [8], 1 µg/mL (≈ 1.52 µM). Also, in assay [9], 0.125 µg/mL (≈ 0.19 µM) was the least that counted as inhibitory (MIC). For the same compound, the Kd in assay [4] turned out to be 5 nM. Besides, the Acute tolerability result in assay [10] was “Lethality 1/5”.
Take `Cn1cc(NC(=O)c2cc(NC(=O)c3cc(NC(=O)c4sccc4Cl)cn3C)cn2C)cc1C(=O)NCCCN1CCCCC1`: the MIC in assay [1] is 4 µg/mL (≈ 6.12 µM); in [11], 16 µg/mL (≈ 24.5 µM); in assay [3], 4 µg/mL (≈ 6.12 µM); in assay [6] (setting [13]), > 32 µg/mL; in assay [7], 8 µg/mL (≈ 12.2 µM); in assay [8], 8 µg/mL (≈ 12.2 µM). Besides, in assay [9], the lowest concentration to inhibit growth (MIC) was 16 µg/mL (≈ 24.5 µM). In addition, the Kd in assay [4] turned out to be 50 nM. Moreover, the Acute tolerability result in assay [12] is “Lethality 3/5”.
